# Test results: ChEMBL document CHEMBL1201862, “PubChem BioAssay data set” (2004)
# The source made the active and inactive calls.
# What was measured:
# [1] = molecular target: DNA damage-inducible transcript 3 protein (Mus musculus, UniProt P35639); assay type: functional, Cricetulus griseus
# [2] = molecular target: T1, Heat shock factor protein 1 (Mus musculus, UniProt P38532); experiment: HSF1 potentiators in luciferase reporter cells, confirmation, cell-based, NIH3T3, luminescence, dose retest (AID 435004); assay type: functional;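 further: stress induced by proteasome inhibitor MG132 added 30 min after compound; luciferase reporter driven by HSF1 response element in NIH3T3 cells; actives raise luminescence as potentiators of the MG132 stress response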
# T1 sequence (P38532 whole entry): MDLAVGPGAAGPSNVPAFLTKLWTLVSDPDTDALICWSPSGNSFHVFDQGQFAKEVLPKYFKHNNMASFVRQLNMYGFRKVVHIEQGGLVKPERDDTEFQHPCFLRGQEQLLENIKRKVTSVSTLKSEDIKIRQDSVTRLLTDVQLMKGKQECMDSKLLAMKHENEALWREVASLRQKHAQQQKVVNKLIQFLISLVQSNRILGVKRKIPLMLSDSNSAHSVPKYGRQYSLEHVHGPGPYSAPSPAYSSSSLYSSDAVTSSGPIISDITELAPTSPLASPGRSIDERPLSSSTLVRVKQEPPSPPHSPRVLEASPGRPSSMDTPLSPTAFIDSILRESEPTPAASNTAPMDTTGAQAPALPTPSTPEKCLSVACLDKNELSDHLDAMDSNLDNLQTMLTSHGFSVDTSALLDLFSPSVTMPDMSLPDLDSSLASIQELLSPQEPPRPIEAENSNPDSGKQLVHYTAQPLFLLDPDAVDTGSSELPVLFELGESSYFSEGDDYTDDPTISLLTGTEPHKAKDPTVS
# Coagulation factor XII = molecular target: T2, Coagulation factor XII (Homo sapiens, UniProt P00748); assay type: functional;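 further: activated factor XIIa alpha cleaving a fluorogenic AMC peptide substrate; inhibitor potency from loss of enzyme activity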
# T2 sequence (P00748 whole entry): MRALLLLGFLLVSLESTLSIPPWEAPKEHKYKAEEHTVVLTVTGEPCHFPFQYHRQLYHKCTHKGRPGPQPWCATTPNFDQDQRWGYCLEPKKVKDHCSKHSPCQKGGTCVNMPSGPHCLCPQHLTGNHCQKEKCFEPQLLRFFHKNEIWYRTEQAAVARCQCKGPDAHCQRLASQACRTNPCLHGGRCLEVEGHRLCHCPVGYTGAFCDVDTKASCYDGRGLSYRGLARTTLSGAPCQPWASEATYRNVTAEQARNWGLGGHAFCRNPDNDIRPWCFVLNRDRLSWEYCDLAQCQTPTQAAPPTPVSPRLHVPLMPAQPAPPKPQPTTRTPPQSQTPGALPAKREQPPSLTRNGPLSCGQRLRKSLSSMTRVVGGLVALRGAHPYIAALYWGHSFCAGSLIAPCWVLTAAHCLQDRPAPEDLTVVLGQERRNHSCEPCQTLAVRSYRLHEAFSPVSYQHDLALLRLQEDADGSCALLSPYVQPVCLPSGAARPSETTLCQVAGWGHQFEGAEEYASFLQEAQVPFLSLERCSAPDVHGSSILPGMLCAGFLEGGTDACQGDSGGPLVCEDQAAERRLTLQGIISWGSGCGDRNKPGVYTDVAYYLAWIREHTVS
# Phospholipase A2 = Phospholipase A2 (Homo sapiens, UniProt P04054); assay type: functional;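 further: confirmatory dose-response counterscreen on phospholipase A2, testing hits that came from an ultra-high-throughput screen for ATG4B inhibitors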
# Chain of Phospholipase A2 (P04054 whole entry): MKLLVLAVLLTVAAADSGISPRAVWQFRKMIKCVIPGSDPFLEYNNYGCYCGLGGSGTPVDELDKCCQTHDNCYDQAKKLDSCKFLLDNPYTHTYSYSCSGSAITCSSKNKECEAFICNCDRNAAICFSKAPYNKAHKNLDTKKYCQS
# Cysteine protease ATG4B = molecular target: T3, Cysteine protease ATG4B (Homo sapiens, UniProt Q9Y4P1); assay type: functional;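 further: Fluorescence-based dose-response confirmation assay measuring inhibition of ATG4B activity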
# T3 sequence (Q9Y4P1 whole entry): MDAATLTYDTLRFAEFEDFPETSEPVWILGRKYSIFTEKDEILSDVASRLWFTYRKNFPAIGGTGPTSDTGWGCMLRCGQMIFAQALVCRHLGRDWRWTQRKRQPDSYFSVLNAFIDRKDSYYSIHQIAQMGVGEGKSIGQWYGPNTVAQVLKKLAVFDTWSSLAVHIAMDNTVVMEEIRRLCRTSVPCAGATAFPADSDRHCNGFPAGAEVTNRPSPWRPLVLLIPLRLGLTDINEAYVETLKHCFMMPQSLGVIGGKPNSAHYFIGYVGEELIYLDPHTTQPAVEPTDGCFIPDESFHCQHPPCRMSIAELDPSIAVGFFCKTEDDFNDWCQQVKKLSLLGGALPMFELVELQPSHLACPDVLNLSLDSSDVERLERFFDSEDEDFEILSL
# Protein RecA = molecular target: T4, Protein RecA (Mycobacterium tuberculosis, UniProt P9WHJ3); experiment: Fluorescence Cell-Free Homogeneous Dose Retest to Identify Inhibitors of RecA-Intein Splicing Activity. [Related pubchem assays (depositor defined):AID2097, AID2223, AID489010, AID492950]; assay type: functional
# T4 sequence (P9WHJ3 whole entry): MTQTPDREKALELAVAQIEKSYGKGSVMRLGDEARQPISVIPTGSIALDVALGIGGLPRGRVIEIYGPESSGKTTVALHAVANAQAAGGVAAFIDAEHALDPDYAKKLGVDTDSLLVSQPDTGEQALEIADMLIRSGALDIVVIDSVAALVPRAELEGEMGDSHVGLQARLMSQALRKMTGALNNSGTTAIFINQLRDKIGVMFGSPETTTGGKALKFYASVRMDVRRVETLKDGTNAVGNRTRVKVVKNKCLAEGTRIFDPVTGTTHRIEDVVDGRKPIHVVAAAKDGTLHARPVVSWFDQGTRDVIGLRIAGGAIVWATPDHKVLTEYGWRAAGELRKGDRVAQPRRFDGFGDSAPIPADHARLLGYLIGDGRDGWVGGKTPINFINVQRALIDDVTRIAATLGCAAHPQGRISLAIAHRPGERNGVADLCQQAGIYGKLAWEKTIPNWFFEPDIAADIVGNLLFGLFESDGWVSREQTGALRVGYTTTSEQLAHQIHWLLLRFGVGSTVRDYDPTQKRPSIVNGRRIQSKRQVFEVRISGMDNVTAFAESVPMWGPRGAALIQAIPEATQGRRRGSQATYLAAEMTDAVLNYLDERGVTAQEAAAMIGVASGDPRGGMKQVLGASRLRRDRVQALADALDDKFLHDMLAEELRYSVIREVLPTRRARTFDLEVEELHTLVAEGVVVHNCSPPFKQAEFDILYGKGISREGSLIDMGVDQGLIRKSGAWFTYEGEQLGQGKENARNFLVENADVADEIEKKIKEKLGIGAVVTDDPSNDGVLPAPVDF
# [3] = molecular target: T5, Probable nicotinate-nucleotide adenylyltransferase (Staphylococcus aureus (strain N315), UniProt P65502); assay type: functional, Staphylococcus aureus subsp. aureus N315; conditions: read-out: IC50_Mean;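 on IC50 Mean: confirmatory dose-response retesting of NadD inhibitor hits first found in an ultra-high-throughput screen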
# T5 sequence (P65502 whole entry): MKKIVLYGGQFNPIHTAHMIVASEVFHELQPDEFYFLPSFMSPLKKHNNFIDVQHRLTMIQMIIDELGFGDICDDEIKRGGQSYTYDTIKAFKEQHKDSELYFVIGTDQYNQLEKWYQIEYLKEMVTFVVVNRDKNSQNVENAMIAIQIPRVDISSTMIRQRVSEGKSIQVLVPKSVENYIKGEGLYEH
# [4] = molecular target: T5, Probable nicotinate-nucleotide adenylyltransferase; assay type: functional, Staphylococcus aureus subsp. aureus N315
# [5] = molecular target: T6, Replicative DNA helicase DnaB (Mycobacterium tuberculosis, UniProt P9WMR3); experiment: DnaB intein splicing inhibitors, dose response, biochemical, cell-free fluorescence (AID 449749); assay type: functional
# T6 sequence (P9WMR3 whole entry): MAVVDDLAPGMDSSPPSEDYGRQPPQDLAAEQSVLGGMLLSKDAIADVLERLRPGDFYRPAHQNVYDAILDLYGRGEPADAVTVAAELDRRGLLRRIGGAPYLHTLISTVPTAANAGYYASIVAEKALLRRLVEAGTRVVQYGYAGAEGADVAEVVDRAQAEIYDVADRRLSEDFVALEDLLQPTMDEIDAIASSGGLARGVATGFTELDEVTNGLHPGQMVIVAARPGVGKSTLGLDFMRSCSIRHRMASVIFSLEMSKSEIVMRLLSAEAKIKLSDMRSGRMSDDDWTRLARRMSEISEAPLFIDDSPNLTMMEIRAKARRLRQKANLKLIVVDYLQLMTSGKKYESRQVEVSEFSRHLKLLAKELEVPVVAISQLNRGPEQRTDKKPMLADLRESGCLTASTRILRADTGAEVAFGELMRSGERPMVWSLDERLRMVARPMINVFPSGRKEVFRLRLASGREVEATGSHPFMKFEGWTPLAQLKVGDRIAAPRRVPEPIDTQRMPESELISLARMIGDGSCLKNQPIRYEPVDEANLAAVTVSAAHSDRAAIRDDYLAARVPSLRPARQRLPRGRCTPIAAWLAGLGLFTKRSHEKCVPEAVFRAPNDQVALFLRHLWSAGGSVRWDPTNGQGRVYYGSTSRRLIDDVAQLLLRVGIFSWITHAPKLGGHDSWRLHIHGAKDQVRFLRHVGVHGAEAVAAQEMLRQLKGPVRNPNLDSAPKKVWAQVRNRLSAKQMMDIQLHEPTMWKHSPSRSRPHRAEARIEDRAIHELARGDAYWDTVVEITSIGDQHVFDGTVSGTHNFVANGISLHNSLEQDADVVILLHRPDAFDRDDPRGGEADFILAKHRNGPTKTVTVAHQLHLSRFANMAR
# BJ [6] = experiment: cytotoxicity toward BJ-TERT fibroblasts, dose response, cell-based, RAS-independent, luminescence (AID 1933); assay type: functional; conditions: Homo sapiens
# [7] = cytotoxicity toward DRD oncogenic fibroblasts, dose response, cell-based, non-viral oncogenic, luminescence (AID 1934); assay type: functional; conditions: Homo sapiens
# INS1 = experiment: beta cell apoptosis inhibitors, cytokine rescue, dose response, luminescence, retest (AID 449756); assay type: functional, cell-based; conditions: Rattus norvegicus;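 further: cell death triggered by IL-1 beta plus TNF-alpha plus IFN-gamma mixture; protective hits raise ATP signal compared with cytokine alone wells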
# [8] = HepG2 cell cytotoxicity, dose response, cytotoxicity control for non-replicating M. tuberculosis project (AID 489018); assay type: functional; conditions: Mycobacterium tuberculosis
# BJ [9] = experiment: cytotoxicity toward BJ-TERT-LT-ST fibroblasts, dose response, cell-based, RAS-independent, luminescence (AID 1935); assay type: functional; conditions: Homo sapiens;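 further: BJ fibroblasts immortalized with TERT plus LT and ST oncogenes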
# [10] = growth suppression of beta-catenin-knockout colon cells, dose response, cell-based, HCT116, human colon tumor (AID 1045); assay type: functional;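 further: HCT116 colon tumor cells with beta catenin knocked out; cells exposed to compound for 60 hours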
# [11] = molecular target: T7, Tyrosyl-DNA phosphodiesterase 2 (Homo sapiens, UniProt O95551); experiment: human TDP2 enzyme inhibitors, dose response, biochemical, epi absorbance, IC50 (AID 743297)
# T7 sequence (O95551 whole entry): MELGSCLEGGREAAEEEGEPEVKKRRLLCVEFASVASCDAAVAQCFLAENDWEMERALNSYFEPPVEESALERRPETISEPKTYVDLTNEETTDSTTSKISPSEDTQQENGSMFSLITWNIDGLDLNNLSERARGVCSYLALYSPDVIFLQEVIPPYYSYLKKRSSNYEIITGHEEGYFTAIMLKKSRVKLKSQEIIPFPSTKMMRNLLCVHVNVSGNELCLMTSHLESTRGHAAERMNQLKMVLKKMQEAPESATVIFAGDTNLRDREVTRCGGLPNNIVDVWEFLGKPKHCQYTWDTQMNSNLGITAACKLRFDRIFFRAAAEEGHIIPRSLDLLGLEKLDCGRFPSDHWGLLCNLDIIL
# [12] = growth suppression of PTEN-null colon cells, dose response, cell-based, HCT116 PTEN knockout (AID 1047); assay type: functional;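 further: HCT116 colon tumor cells with PTEN knocked out; cells exposed to compound for 60 hours before readout; potency for loss of cell viability measured by luminescence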
# [13] = cytotoxicity toward NIH3T3 fibroblasts, dose response, counter-screen, cell-based, ATP luminescence, mouse fibroblasts (AID 2010); assay type: functional;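 further: cells exposed to compound for about 90 hours before reading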
# BJ [14] = experiment: cells; assay type: functional, cell-based; conditions: Homo sapiens
# [15] = molecular target: T8, Mannose-6-phosphate isomerase (Homo sapiens, UniProt P34949); experiment: human PMI inhibitors, high substrate, primary screen, biochemical, fluorescence intensity, high mannose 6-phosphate (AID 1220)
# T8 sequence (P34949 whole entry): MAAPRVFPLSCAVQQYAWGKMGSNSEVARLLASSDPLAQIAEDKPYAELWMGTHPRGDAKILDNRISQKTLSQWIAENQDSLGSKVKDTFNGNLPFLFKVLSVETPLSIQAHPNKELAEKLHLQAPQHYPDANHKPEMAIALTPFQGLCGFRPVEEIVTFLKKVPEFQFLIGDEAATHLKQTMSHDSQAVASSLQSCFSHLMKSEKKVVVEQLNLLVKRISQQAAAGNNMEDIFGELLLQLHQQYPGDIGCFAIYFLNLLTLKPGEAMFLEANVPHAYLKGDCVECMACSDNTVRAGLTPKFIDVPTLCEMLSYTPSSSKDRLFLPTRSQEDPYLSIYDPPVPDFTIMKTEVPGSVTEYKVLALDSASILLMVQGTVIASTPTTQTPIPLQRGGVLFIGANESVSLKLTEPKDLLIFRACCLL
# [16] = inhibitors of intracellular T. cruzi replication, confirmation, NIH3T3 host cells, beta-gal luminescence (AID 2044); assay type: functional, cell-based;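 further: intracellular parasites grown in NIH/3T3 mouse fibroblasts as host cells; luminescent beta-galactosidase reporter signal from transgenic T. cruzi replicating inside host cells; inhibitors lower the luminescence signal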
# [17] = Vero E6 cell cytotoxicity, dose response, cytotoxicity control for non-replicating M. tuberculosis project, secondary assay (AID 492998); assay type: functional, VeroE6; conditions: Vero C1008
# cells = assay type: functional
# [18] = THP-1 cell cytotoxicity, dose response, cytotoxicity control for non-replicating M. tuberculosis project (AID 489025); assay type: functional
# [19] = microbe, parasite or virus in culture; assay type: functional; conditions: Mycobacterium tuberculosis
# Chain of DNA damage-inducible transcript 3 protein (P35639 whole entry): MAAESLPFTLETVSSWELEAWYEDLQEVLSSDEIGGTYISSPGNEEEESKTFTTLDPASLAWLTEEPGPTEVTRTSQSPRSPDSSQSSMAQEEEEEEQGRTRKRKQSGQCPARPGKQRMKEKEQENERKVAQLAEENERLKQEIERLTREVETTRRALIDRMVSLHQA
smiles,measurement,setting,value
CCn1cc([N+](=O)[O-])c(C(=O)N2N=C(c3ccc(Cl)c(Cl)c3)CC2c2ccccc2O)n1 (stereo unspecified),Absolute IC50 (CHOP),[1],10 µM
same,EC50,[2],> 260 µM (inactive)
CCC1SC(CC)C(=O)N(CC(=O)NC2CCCCC2)C1=O (stereo unspecified),IC50,Coagulation factor XII,> 50 µM (inactive)
CN(C)c1ccc(-c2nnn(Cc3ccccc3Br)n2)cc1,IC50,Phospholipase A2,7.95 µM (active)
same,IC50,Cysteine protease ATG4B,13.2 µM (active)
CC(=O)c1ccc(N2CCN(S(=O)(=O)c3cccc(S(=O)(=O)N4CCOCC4)c3)CC2)cc1,IC50,Coagulation factor XII,> 50 µM (inactive)
CCOc1ccc(N2C(=O)/C(=C\c3ccc(O)c(OC)c3)S(=O)(=O)C2c2cccc([N+](=O)[O-])c2)cc1 (stereo unspecified),Absolute IC50 (CHOP),[1],10 µM
same,EC50,[2],8.52 µM (active)
same,EC50,Protein RecA,3.74 µM (active)
same,IC50,[3],35.9 µM (active)
same,IC50,[4],9.57 µM (active)
same,AC50,[5],2.96 µM (active)
O=C1OC(Nc2ncccn2)c2ccccc21 (stereo unspecified),IC50,Coagulation factor XII,> 50 µM (inactive)
CCCNC1=C(N(C(C)=O)c2cccc(F)c2)C(=O)c2ccccc2C1=O,EC50,BJ [6],6.47 µM (inconclusive)
same,EC50,[7],6.47 µM (active)
same,AC50,INS1,1.03 µM (active)
same,CC50,[8],8.6 µM (active)
same,EC50,Protein RecA,2.06 µM (active)
same,EC50,BJ [9],6.6 µM (active)
same,EC50,[10],979 nM (active)
same,IC50,[11],> 4.75 µM (active)
same,EC50,[12],1.14 µM (active)
same,EC50,[13],10.3 µM (active)
same,EC50,BJ [14],5.96 µM (active)
same,IC50,[15],> 50 µM (not active)
same,EC50,[16],1.23 µM (active)
same,CC50,[17],17.7 µM (active)
same,IC50,cells,20.8 µM (active)
same,CC50,[18],1.47 µM (active)
same,AC50,[5],9.44 µM (active)
same,CC50,[19],31 µM (active)
